Measured values taken from US20240092784A1, “CONDENSED HETEROCYCLIC COMPOUND” (NISSAN CHEMICAL CORPORATION, priority 2020, published 2024).

Biological target: human SPR (Homo sapiens (Human), UniProt P35270)
Experiment: Evaluation Example 2: Measurement of human SPR inhibitory activity (seven concentrations, sepiapterin absorbance at 420 nm)
Type: biochemical
Details: Evaluation Example 2, seven concentrations 0.14 nM to 100 nM, 240 minutes at room temperature, read-out: IC50
How it was run: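 Reactions ran 240 min at room temperature in 100 mM Tris-HCl pH 7.5 with 0.01% BSA. They contained tag-cleaved, E. coli-expressed full-length human SPR (diluted to 150 ng/mL), seven compound concentrations from 0.14 to 100 nM, and sepiapterin/NADPH added as a 120 μM/160 μM solution. Inhibition was calculated from sepiapterin absorbance at 420 nm.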

Sequence of human SPR (P35270 whole entry): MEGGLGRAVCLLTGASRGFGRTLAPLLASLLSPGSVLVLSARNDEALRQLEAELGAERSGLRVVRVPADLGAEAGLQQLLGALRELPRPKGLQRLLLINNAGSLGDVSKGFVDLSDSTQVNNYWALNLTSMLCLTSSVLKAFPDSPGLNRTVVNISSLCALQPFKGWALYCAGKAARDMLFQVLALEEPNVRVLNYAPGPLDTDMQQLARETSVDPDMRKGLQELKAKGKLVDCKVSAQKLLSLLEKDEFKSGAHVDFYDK

Row | SMILES | IC50 [nM]
1 | C[C@@H]1COCCN1C(=O)/C=C/c1cnn2c(O)c(C(=O)NC3CC3)c(=O)n(CC3(C)CC3)c12 [Synthesis Example 370, (R,E)-N-Cyclopropyl-7-hydroxy-4-((1-methylcyclopropyl)methyl)-3-(3-(3-methylmorpholino)-3-oxoprop-1-en-1-yl)-5-oxo-4,5-dihydropyrazolo[1,5-a]pyrimidine-6-carboxamide] | 0.54
2 | COC[C@H]1COCCN1C(=O)/C=C/c1cnn2c(O)c(C(=O)NC3CC3)c(=O)n(CC3(C)CC3)c12 [Synthesis Example 371, (S,E)-N-Cyclopropyl-7-hydroxy-3-(3-(3-(methoxymethyl)morpholino)-3-oxoprop-1-en-1-yl)-4-((1-methylcyclopropyl)methyl)-5-oxo-4,5-dihydropyrazolo[1,5-a]pyrimidine-6-carboxamide] | 0.61
3 | COC[C@@H]1COCCN1C(=O)/C=C/c1cnn2c(O)c(C(=O)NC3CC3)c(=O)n(CC3(C)CC3)c12 [Synthesis Example 372, (R,E)-N-Cyclopropyl-7-hydroxy-3-(3-(3-(methoxymethyl)morpholino)-3-oxoprop-1-en-1-yl)-4-((1-methylcyclopropyl)methyl)-5-oxo-4,5-dihydropyrazolo[1,5-a]pyrimidine-6-carboxamide] | 0.55
4 | CC1(Cn2c(=O)c(C(=O)NC3CC3)c(O)n3ncc(/C=C/C(=O)N4C[C@H]5C[C@@H]4CO5)c23)CC1 [Synthesis Example 373] | 0.74
5 | CC1(Cn2c(=O)c(C(=O)NC3CC3)c(O)n3ncc(/C=C/C(=O)N4C[C@@H]5C[C@H]4CO5)c23)CC1 [Synthesis Example 374] | 0.65
6 | O=C(NC1CC1)c1c(O)n2ncc(/C=C/C(=O)N3C[C@@H]4C[C@H]3CO4)c2n(CC2(F)CC2)c1=O [Synthesis Example 375] | 0.65
7 | O=C(NC1CC1)c1c(O)n2ncc(/C=C/C(=O)N3C4CCC3COC4)c2n(CC2(F)CC2)c1=O [Synthesis Example 376, (E)-3-(3-(3-Oxa-8-azabicyclo[3.2.1]octan-8-yl)-3-oxoprop-1-en-1-yl)-N-cyclopropyl-4-((1-fluorocyclopropyl)methyl)-7-hydroxy-5-oxo-4,5-dihydropyrazolo[1,5-a]pyrimidine-6-carboxamide] | 0.72
8 | O=C(NC1CC1)c1c(O)n2ncc(/C=C/C(=O)N3C[C@H]4C[C@@H]3CO4)c2n(CC2(F)CC2)c1=O [Synthesis Example 377] | 0.78
9 | O=C(NC1CC1)c1c(O)n2ncc(/C=C/C(=O)N3CC4CCC(C3)O4)c2n(CC2(F)CC2)c1=O [Synthesis Example 378, (E)-3-(3-(8-Oxa-3-azabicyclo[3.2.1]octan-3-yl)-3-oxoprop-1-en-1-yl)-N-cyclopropyl-4-((1-fluorocyclopropyl)methyl)-7-hydroxy-5-oxo-4,5-dihydropyrazolo[1,5-a]pyrimidine-6-carboxamide] | 0.79
10 | C[C@H]1COCCN1C(=O)/C=C/c1cnn2c(O)c(C(=O)NC3CC3)c(=O)n(CC3(F)CC3)c12 [Synthesis Example 379, (S,E)-N-Cyclopropyl-4-((1-fluorocyclopropyl)methyl)-7-hydroxy-3-(3-(3-methylmorpholino)-3-oxoprop-1-en-1-yl)-5-oxo-4,5-dihydropyrazolo[1,5-a]pyrimidine-6-carboxamide] | 0.7
11 | C[C@@H]1COCCN1C(=O)/C=C/c1cnn2c(O)c(C(=O)NC3CC3)c(=O)n(CC3(F)CC3)c12 [Synthesis Example 380, (R,E)-N-Cyclopropyl-4-((1-fluorocyclopropyl)methyl)-7-hydroxy-3-(3-(3-methylmorpholino)-3-oxoprop-1-en-1-yl)-5-oxo-4,5-dihydropyrazolo[1,5-a]pyrimidine-6-carboxamide] | 0.76
12 | O=C(NC1CC1)c1c(O)n2ncc(/C=C/C(=O)N3CCOCC3)c2n(CC2CCC2)c1=O [Synthesis Example 381, (E)-4-(Cyclobutylmethyl)-N-cyclopropyl-7-hydroxy-3-(3-morpholino-3-oxoprop-1-en-1-yl)-5-oxo-4,5-dihydropyrazolo[1,5-a]pyrimidine-6-carboxamide] | 0.71
13 | COC[C@H]1COCCN1C(=O)/C=C/c1cnn2c(O)c(C(=O)NC3CC3)c(=O)n(CC3(F)CC3)c12 [Synthesis Example 382, (S,E)-N-cyclopropyl-4-((1-fluorocyclopropyl)methyl)-7-hydroxy-3-(3-(3-(methoxymethyl)morpholino)-3-oxoprop-1-en-1-yl)-5-oxo-4,5-dihydropyrazolo[1,5-a]pyrimidine-6-carboxamide] | 0.87
14 | COC[C@@H]1COCCN1C(=O)/C=C/c1cnn2c(O)c(C(=O)NC3CC3)c(=O)n(CC3(F)CC3)c12 [Synthesis Example 383, (R,E)-N-Cyclopropyl-4-((1-fluorocyclopropyl)methyl)-7-hydroxy-3-(3-(3-(methoxymethyl)morpholino)-3-oxoprop-1-en-1-yl)-5-oxo-4,5-dihydropyrazolo[1,5-a]pyrimidine-6-carboxamide] | 0.82
15 | CC1(Cn2c(=O)c(C(=O)NC3CC3)c(O)n3ncc(/C=C/C(=O)N4CCOCC4)c23)CCOCC1 [Synthesis Example 386, (E)-N-Cyclopropyl-7-hydroxy-4-((4-methyltetrahydro-2H-pyran-4-yl)methyl)-3-(3-morpholino-3-oxoprop-1-en-1-yl)-5-oxo-4,5-dihydropyrazolo[1,5-a]pyrimidine-6-carboxamide] | 0.6
16 | O=C(NC1CC1)c1c(O)n2ncc(/C=C/C(=O)N3CCOCC3)c2n(CC2CC2)c1=O [Synthesis Example 387, (E)-N-Cyclopropyl-4-(cyclopropylmethyl)-7-hydroxy-3-(3-morpholino-3-oxoprop-1-en-1-yl)-5-oxo-4,5-dihydropyrazolo[1,5-a]pyrimidine-6-carboxamide] | 0.86
17 | CC(C)(F)Cn1c(=O)c(C(=O)NC2CC2)c(O)n2ncc(/C=C/C(=O)N3CCOCC3)c12 [Synthesis Example 390, (E)-N-Cyclopropyl-4-(2-fluoro-2-methylpropyl)-7-hydroxy-3-(3-morpholino-3-oxoprop-1-en-1-yl)-5-oxo-4,5-dihydropyrazolo[1,5-a]pyrimidine-6-carboxamide] | 0.71
18 | CC(C)(C)Cn1c(=O)c(C(=O)NC2CC2)c(O)n2nc3ncccc3c12 [Synthesis Example 391, N-Cyclopropyl-4-hydroxy-1-neopentyl-2-oxo-1,2-dihydropyrido[2′,3′:3,4]pyrazolo[1,5-a]pyrimidine-3-carboxamide] | 0.92
19 | CC(C)(C)Cn1c(=O)c(C(=O)NC2CC2)c(O)n2nc3nccnc3c12 [Synthesis Example 392, N-Cyclopropyl-7-hydroxy-10-neopentyl-9-oxo-9,10-dihydropyrazino[2′,3′:3,4]pyrazolo[1,5-a]pyrimidine-8-carboxamide] | 1.5
20 | COc1ccc2c(n1)nn1c(O)c(C(=O)NC3CC3)c(=O)n(CC(C)(C)C)c21 [Synthesis Example 393, N-Cyclopropyl-4-hydroxy-8-methoxy-1-neopentyl-2-oxo-1,2-dihydropyrido[2′,3′:3,4]pyrazolo[1,5-a]pyrimidine-3-carboxamide] | 1.38
21 | CC(C)(C)Cn1c(=O)c(C(=O)NC2CC2)c(O)n2nc3[nH]c(=O)ccc3c12 [Synthesis Example 394, N-Cyclopropyl-4-hydroxy-1-neopentyl-2,8-dioxo-1,2,7,8-tetrahydropyrido[2′,3′:3,4]pyrazolo[1,5-a]pyrimidine-3-carboxamide] | 0.39
22 | CC(C)(C)Cn1c(=O)c(C(=O)NC2CC2)c(O)n2nc3[nH]ccc3c12 [Synthesis Example 395, N-Cyclopropyl-7-hydroxy-4-neopentyl-5-oxo-4,5-dihydro-1H-pyrrolo[2′,3′:3,4]pyrazolo[1,5-a]pyrimidine-6-carboxamide] | 0.89
23 | CC(C)(C)Cn1c(=O)c(C(=O)NC2CC2)c(O)n2nc3c(c12)CCN3 [Synthesis Example 396, N-Cyclopropyl-7-hydroxy-4-neopentyl-5-oxo-2,3,4,5-tetrahydro-1H-pyrrolo[2′,3′:3,4]pyrazolo[1,5-a]pyrimidine-6-carboxamide] | 1.35
24 | CC(C)(C)Cn1c(=O)c(C(=O)NC2CC2)c(O)n2nc3c(c12)CCN3C(N)=O [Synthesis Example 397, N6-Cyclopropyl-7-hydroxy-4-neopentyl-5-oxo-2,3,4,5-tetrahydro-1H-pyrrolo[2′,3′:3,4]pyrazolo[1,5-a]pyrimidine-1,6-dicarboxamide] | 1.75
25 | CC(C)(C)Cn1c(=O)c(C(=O)NC2CC2)c(O)n2nc3c(c12)CCN3CC(F)(F)F [Synthesis Example 398, N-Cyclopropyl-7-hydroxy-4-neopentyl-5-oxo-1-(2,2,2-trifluoroethyl)-2,3,4,5-tetrahydro-1H-pyrrolo[2′,3′:3,4]pyrazolo[1,5-a]pyrimidine-6-carboxamide] | 6.08
26 | CC(C)Cn1c(=O)c(C(=O)NC2CC2)c(O)n2nc3[nH]ccc3c12 [Synthesis Example 399, N-Cyclopropyl-7-hydroxy-4-isobutyl-5-oxo-4,5-dihydro-1H-pyrrolo[2′,3′:3,4]pyrazolo[1,5-a]pyrimidine-6-carboxamide] | 1.56
27 | CC(C)(C)Cn1c(=O)c(C(=O)NC2CC2)c(O)n2nc3c(c12)COC(=O)N3 [Synthesis Example 400, N-Cyclopropyl-8-hydroxy-5-neopentyl-2,6-dioxo-1,2,5,6-tetrahydro-4H-pyrimido[1′,2′:1,5]pyrazolo[3,4-d][1,3]oxazine-7-carboxamide] | 0.7
28 | CC(C)(C)Cn1c(=O)c(C(=O)NC2CC2)c(O)n2nc3c(c12)CCOC(=O)N3 [Synthesis Example 401, N-Cyclopropyl-9-hydroxy-6-neopentyl-2,7-dioxo-1,2,4,5,6,7-hexahydropyrimido[1′,2′:1,5]pyrazolo[3,4-d][1,3]oxazepine-8-carboxamide] | 0.56
29 | CC(C)(C)Cn1c(=O)c(C(=O)NC2CC2)c(O)n2nc3c(c12)CC(=O)N3 [Synthesis Example 402, N-Cyclopropyl-7-hydroxy-4-neopentyl-2,5-dioxo-2,3,4,5-tetrahydro-1H-pyrrolo[2′,3′:3,4]pyrazolo[1,5-a]pyrimidine-6-carboxamide] | 0.63
